Assay results: publication PMC10850145, “Hormonal steroids induce multidrug resistance and stress response genes in Neisseria gonorrhoeae by binding to MtrR” (Nature Communications, 2024)
“And” between values parts separate entries of the source, which are not always exact repeats. Identical values can stand only once. Like-named read-outs stand apart in the source and are kept apart here.

Assays:
[1] = target: T1, MtrR D171A (Neisseria gonorrhoeae, UniProt P39897, D171A); test: biochemical; type: binding; details: ITC
T1 construct: Hexa-histidine tag with TEV protease cleavage site (N, cleaved yes); made in house; host or cells: E. coli Rosetta Gami B(DE3) pLysS
T1 sequence (P39897 whole entry D171A): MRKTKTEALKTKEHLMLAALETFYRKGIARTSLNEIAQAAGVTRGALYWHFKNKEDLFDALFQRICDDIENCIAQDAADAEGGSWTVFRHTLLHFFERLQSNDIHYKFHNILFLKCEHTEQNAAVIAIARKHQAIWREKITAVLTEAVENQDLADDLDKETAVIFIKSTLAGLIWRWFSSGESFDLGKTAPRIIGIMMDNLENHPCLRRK

[2] = test system: FA19-rpoH-lacZ; test: Gonococcal growth in liquid culture (GC broth) with hormones (Fig S7)
[3] = target: T2, MtrR (Neisseria gonorrhoeae, UniProt P39897); test: Isothermal titration calorimetry, ligand binding to MtrR WT; details: ITC
T2 construct: Hexa-histidine tag with TEV protease cleavage site (N, cleaved yes); made in house; host or cells: E. coli Rosetta Gami B(DE3) pLysS
T2 sequence (P39897 whole entry): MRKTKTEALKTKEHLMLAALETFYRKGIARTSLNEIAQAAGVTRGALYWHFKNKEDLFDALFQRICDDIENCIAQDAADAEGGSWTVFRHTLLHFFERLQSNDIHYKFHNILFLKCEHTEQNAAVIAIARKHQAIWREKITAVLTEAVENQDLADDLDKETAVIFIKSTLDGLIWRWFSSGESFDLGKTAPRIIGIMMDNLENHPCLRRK

[4] = test system: N. gonorrhoeae; design: method as in PMID 816438; details: cited from earlier work
[5] = test system: rpoH-lacZ expression; type: cell-based, Neisseria gonorrhoeae
[6] = rpoH-lacZ, ΔmtrR + mtrR D171A in trans, 6.25 µM hormone, single replicate
[7] = rpoH-lacZ, ΔmtrR + mtrR D171A in trans, 12.5 µM hormone, single replicate
[8] = rpoH-lacZ, ΔmtrR + mtrR D171A in trans, 25 µM hormone, single replicate
[9] = rpoH-lacZ, ΔmtrR + mtrR D171A in trans, 50 µM hormone, single replicate

## C[C@]12CC[C@@H]3c4ccc(O)cc4CC[C@H]3[C@@H]1CC[C@@H]2O [β-Estradiol, β-estradiol]
[1]
  binding to MtrR D171A: no observable binding
[2]; 0 hr, 0.1 µM
  growth curve reading after BLANKING: 0.013
  growth curve reading, raw replicates: 0.046
[2]; 0 hr, 1 µM
  growth curve reading after BLANKING: 0.013
  growth curve reading, raw replicates: 0.046
[2]; 0 hr, 10 µM
  growth curve reading after BLANKING: 0.013
  growth curve reading, raw replicates: 0.046
[2]; 0 hr, 25 µM
  growth curve reading after BLANKING: 0.013
  growth curve reading, raw replicates: 0.046
[2]; 0 hr, 50 µM
  growth curve reading after BLANKING: 0.013
  growth curve reading, raw replicates: 0.046
[2]; 1.18 hr, 0.1 µM
  growth curve reading after BLANKING: 0.020
  growth curve reading, raw replicates: 0.052 and 0.053
[2]; 1.18 hr, 1 µM
  growth curve reading after BLANKING: 0.020
  growth curve reading, raw replicates: 0.054 and 0.052
[2]; 1.18 hr, 10 µM
  growth curve reading after BLANKING: 0.020
  growth curve reading, raw replicates: 0.053 and 0.054
[2]; 1.18 hr, 25 µM
  growth curve reading after BLANKING: 0.021
  growth curve reading, raw replicates: 0.053 and 0.056
[2]; 1.18 hr, 50 µM
  growth curve reading after BLANKING: 0.019
  growth curve reading, raw replicates: 0.052 and 0.053
[2]; 2 hr, 0.1 µM
  growth curve reading after BLANKING: 0.030
  growth curve reading, raw replicates: 0.062 and 0.065
[2]; 2 hr, 1 µM
  growth curve reading after BLANKING: 0.030
  growth curve reading, raw replicates: 0.063
[2]; 2 hr, 10 µM
  growth curve reading after BLANKING: 0.031
  growth curve reading, raw replicates: 0.063 and 0.065
[2]; 2 hr, 25 µM
  growth curve reading after BLANKING: 0.030
  growth curve reading, raw replicates: 0.062 and 0.064
[2]; 2 hr, 50 µM
  growth curve reading after BLANKING: 0.030
  growth curve reading, raw replicates: 0.063
[2]; 3 hr, 0.1 µM
  growth curve reading after BLANKING: 0.041
  growth curve reading, raw replicates: 0.076 and 0.072
[2]; 3 hr, 1 µM
  growth curve reading after BLANKING: 0.041
  growth curve reading, raw replicates: 0.074 and 0.073
[2]; 3 hr, 10 µM
  growth curve reading after BLANKING: 0.043
  growth curve reading, raw replicates: 0.079 and 0.074
[2]; 3 hr, 25 µM
  growth curve reading after BLANKING: 0.044
  growth curve reading, raw replicates: 0.078 and 0.075
[2]; 3 hr, 50 µM
  growth curve reading after BLANKING: 0.040
  growth curve reading, raw replicates: 0.074 and 0.072
[2]; 4 hr, 0.1 µM
  growth curve reading after BLANKING: 0.055
  growth curve reading, raw replicates: 0.087 and 0.090
[2]; 4 hr, 1 µM
  growth curve reading after BLANKING: 0.056
  growth curve reading, raw replicates: 0.089 and 0.088
[2]; 4 hr, 10 µM
  growth curve reading after BLANKING: 0.057
  growth curve reading, raw replicates: 0.088 and 0.092
[2]; 4 hr, 25 µM
  growth curve reading after BLANKING: 0.060
  growth curve reading, raw replicates: 0.093
[2]; 4 hr, 50 µM
  growth curve reading after BLANKING: 0.052
  growth curve reading, raw replicates: 0.082 and 0.088
[2]; 5 hr, 0.1 µM
  growth curve reading after BLANKING: 0.072
  growth curve reading, raw replicates: 0.104 and 0.106
[2]; 5 hr, 1 µM
  growth curve reading after BLANKING: 0.072
  growth curve reading, raw replicates: 0.105
[2]; 5 hr, 10 µM
  growth curve reading after BLANKING: 0.071
  growth curve reading, raw replicates: 0.103 and 0.105
[2]; 5 hr, 25 µM
  growth curve reading after BLANKING: 0.076
  growth curve reading, raw replicates: 0.113 and 0.106
[2]; 5 hr, 50 µM
  growth curve reading after BLANKING: 0.065
  growth curve reading, raw replicates: 0.094 and 0.103
[2]; 5.95 hr, 0.1 µM
  growth curve reading after BLANKING: 0.090
  growth curve reading, raw replicates: 0.124 and 0.123
[2]; 5.95 hr, 1 µM
  growth curve reading after BLANKING: 0.093
  growth curve reading, raw replicates: 0.126 and 0.125
[2]; 5.95 hr, 10 µM
  growth curve reading after BLANKING: 0.086
  growth curve reading, raw replicates: 0.118 and 0.119
[2]; 5.95 hr, 25 µM
  growth curve reading, raw replicates: 0.134 and 0.124
[2]; 5.95 hr, 50 µM
  growth curve reading after BLANKING: 0.083
  growth curve reading, raw replicates: 0.110 and 0.122
[2]; 6.82 hr, 0.1 µM
  growth curve reading, raw replicates: 0.137 and 0.133
[2]; 6.82 hr, 1 µM
  growth curve reading, raw replicates: 0.143 and 0.139
[2]; 6.82 hr, 10 µM
  growth curve reading after BLANKING: 0.092
  growth curve reading, raw replicates: 0.127 and 0.123
[2]; 6.82 hr, 25 µM
  growth curve reading after BLANKING: 0.114
  growth curve reading, raw replicates: 0.156 and 0.139
[2]; 6.82 hr, 50 µM
  growth curve reading, raw replicates: 0.124 and 0.136
[3]
  binding stoichiometry N (ligand per MtrR): ~ 1
[3]; 25 °C, 1% MeOH, read-out: equilibrium dissociation constant (Kd), MtrR WT
  Kd: 1670 nM and ~1670 nM
[3]; listed as EST
  binding stoichiometry N (ligand per MtrR): one molecule of steroid per MtrR monomer
[4]
  growth inhibition of N. gonorrhoeae: arrest N. gonorrhoeae growth
[5]; Mean of plate rows 5-8, plate columns 1-6 (first strain), 6.25 µM hormone
  Miller units, Mean: 42 Miller units
[5]; Mean of plate rows 5-8, plate columns 1-6 (first strain), 12.5 µM hormone
  Miller units, Mean: 61 Miller units
[5]; Mean of plate rows 5-8, plate columns 1-6 (first strain), 25 µM hormone
  Miller units, Mean: 70 Miller units
[5]; Mean of plate rows 5-8, plate columns 1-6 (first strain), 50 µM hormone
  Miller units, Mean: 78 Miller units
[5]; Mean of plate rows 5-8, plate columns 7-12 (second strain), 6.25 µM hormone
  Miller units, Mean: 73.6 Miller units
[5]; Mean of plate rows 5-8, plate columns 7-12 (second strain), 12.5 µM hormone
  Miller units, Mean: 75.3 Miller units
[5]; Mean of plate rows 5-8, plate columns 7-12 (second strain), 25 µM hormone
  Miller units, Mean: 76.5 Miller units
[5]; Mean of plate rows 5-8, plate columns 7-12 (second strain), 50 µM hormone
  Miller units, Mean: 79.6 Miller units
[5]; complemented (MtrR+) strains, increasing hormone
  induction of rpoH expression: could be induced
[5]; loss of MtrR or MtrR-D171A strain
  induction of rpoH expression: abrogated
[5]; [6]
  Miller units: 73 Miller units
  β-galactosidase activity (Miller units): 64 Miller units and 67 Miller units and 90 Miller units
[5]; [7]
  Miller units: 67 Miller units
  β-galactosidase activity (Miller units): 68 Miller units and 72 Miller units and 94 Miller units
[5]; [8]
  Miller units: 76 Miller units
  β-galactosidase activity (Miller units): 84 Miller units and 81 Miller units and 65 Miller units
[5]; [9]
  Miller units: 82 Miller units
  β-galactosidase activity (Miller units): 80 Miller units and 76 Miller units
[5]; rpoH-lacZ, ΔmtrR + mtrR WT in trans, 6.25 µM hormone, single replicate
  β-galactosidase activity (Miller units): 29 Miller units and 43 Miller units and 45 Miller units and 49 Miller units
[5]; rpoH-lacZ, ΔmtrR + mtrR WT in trans, 12.5 µM hormone, single replicate
  β-galactosidase activity (Miller units): 60 Miller units and 54 Miller units and 64 Miller units and 67 Miller units
[5]; rpoH-lacZ, ΔmtrR + mtrR WT in trans, 25 µM hormone, single replicate
  β-galactosidase activity (Miller units): 91 Miller units and 57 Miller units and 68 Miller units and 64 Miller units
[5]; rpoH-lacZ, ΔmtrR + mtrR WT in trans, 50 µM hormone, single replicate
  β-galactosidase activity (Miller units): 89 Miller units and 63 Miller units and 78 Miller units and 82 Miller units
[5]; rpoH-lacZ, ΔmtrR strain, 6.25 µM hormone, single replicate
  β-galactosidase activity (Miller units): 253 Miller units and 160 Miller units and 91 Miller units
[5]; rpoH-lacZ, ΔmtrR strain, 12.5 µM hormone, single replicate
  β-galactosidase activity (Miller units): 161 Miller units and 99 Miller units
[5]; rpoH-lacZ, ΔmtrR strain, 25 µM hormone, single replicate
  β-galactosidase activity (Miller units): 232 Miller units and 156 Miller units and 133 Miller units
[5]; rpoH-lacZ, ΔmtrR strain, 50 µM hormone, single replicate
  β-galactosidase activity (Miller units): 195 Miller units and 151 Miller units and 114 Miller units
[5]; rpoH-lacZ, ΔmtrR, 6.25 µM hormone, single replicate
  Miller units: 150 Miller units
[5]; rpoH-lacZ, ΔmtrR, 12.5 µM hormone, single replicate
  Miller units: 165 Miller units
[5]; rpoH-lacZ, ΔmtrR, 25 µM hormone, single replicate
  Miller units: 177 Miller units
[5]; rpoH-lacZ, ΔmtrR, 50 µM hormone, single replicate
  Miller units: 178 Miller units
[5]; single well, plate rows 5-8, plate columns 1-6 (first strain), 6.25 µM hormone
  Miller units: 29 Miller units and 43 Miller units and 45 Miller units and 49 Miller units
[5]; single well, plate rows 5-8, plate columns 1-6 (first strain), 12.5 µM hormone
  Miller units: 60 Miller units and 54 Miller units and 64 Miller units and 67 Miller units
[5]; single well, plate rows 5-8, plate columns 1-6 (first strain), 25 µM hormone
  Miller units: 91 Miller units and 57 Miller units and 68 Miller units and 64 Miller units
[5]; single well, plate rows 5-8, plate columns 1-6 (first strain), 50 µM hormone
  Miller units: 89 Miller units and 63 Miller units and 78 Miller units and 82 Miller units
[5]; single well, plate rows 5-8, plate columns 7-12 (second strain), 6.25 µM hormone
  Miller units: 64 Miller units and 67 Miller units and 73 Miller units and 90 Miller units
[5]; single well, plate rows 5-8, plate columns 7-12 (second strain), 12.5 µM hormone
  Miller units: 68 Miller units and 72 Miller units and 67 Miller units and 94 Miller units
[5]; single well, plate rows 5-8, plate columns 7-12 (second strain), 25 µM hormone
  Miller units: 84 Miller units and 81 Miller units and 76 Miller units and 65 Miller units
[5]; single well, plate rows 5-8, plate columns 7-12 (second strain), 50 µM hormone
  Miller units: 80 Miller units and 82 Miller units and 76 Miller units
[5]; strain WT (FA19/pLES94-rpoH), hormone 6.25 µM
  β-galactosidase activity, rpoH-lacZ, Mean: 83 Miller units
[5]; strain WT (FA19/pLES94-rpoH), hormone 12.5 µM
  β-galactosidase activity, rpoH-lacZ, Mean: 113 Miller units
[5]; strain WT (FA19/pLES94-rpoH), hormone 25 µM
  β-galactosidase activity, rpoH-lacZ, Mean: 148 Miller units
[5]; strain WT (FA19/pLES94-rpoH), hormone 50 µM
  β-galactosidase activity, rpoH-lacZ, Mean: 162 Miller units
[5]; strain producing MtrR R176E
  activation of rpoH: clearly weaker activation
[5]; strain ΔmtrR (FA19 ∆mtrR/pLES94-rpoH), hormone 6.25 µM
  β-galactosidase activity, rpoH-lacZ, Mean: 163 Miller units
[5]; strain ΔmtrR (FA19 ∆mtrR/pLES94-rpoH), hormone 12.5 µM
  β-galactosidase activity, rpoH-lacZ, Mean: 152 Miller units
[5]; strain ΔmtrR (FA19 ∆mtrR/pLES94-rpoH), hormone 25 µM
  β-galactosidase activity, rpoH-lacZ, Mean: 175 Miller units
[5]; strain ΔmtrR (FA19 ∆mtrR/pLES94-rpoH), hormone 50 µM
  β-galactosidase activity, rpoH-lacZ, Mean: 160 Miller units
[5]; strain ΔmtrR + mtrR D171A (pGCC3-mtrR D171A), hormone 6.25 µM
  β-galactosidase activity, rpoH-lacZ, Mean: 74 Miller units
[5]; strain ΔmtrR + mtrR D171A (pGCC3-mtrR D171A), hormone 12.5 µM
  β-galactosidase activity, rpoH-lacZ, Mean: 75 Miller units
[5]; strain ΔmtrR + mtrR D171A (pGCC3-mtrR D171A), hormone 25 µM
  β-galactosidase activity, rpoH-lacZ, Mean: 76 Miller units
[5]; strain ΔmtrR + mtrR D171A (pGCC3-mtrR D171A), hormone 50 µM
  β-galactosidase activity, rpoH-lacZ, Mean: 80 Miller units
[5]; strain ΔmtrR + mtrR WT (pGCC3-mtrR), hormone 6.25 µM
  β-galactosidase activity, rpoH-lacZ, Mean: 42 Miller units
[5]; strain ΔmtrR + mtrR WT (pGCC3-mtrR), hormone 12.5 µM
  β-galactosidase activity, rpoH-lacZ, Mean: 61 Miller units
[5]; strain ΔmtrR + mtrR WT (pGCC3-mtrR), hormone 25 µM
  β-galactosidase activity, rpoH-lacZ, Mean: 70 Miller units
[5]; strain ΔmtrR + mtrR WT (pGCC3-mtrR), hormone 50 µM
  β-galactosidase activity, rpoH-lacZ, Mean: 78 Miller units
